Square brackets hold non-standard residues; d marks the D form. Peptide text beside a SMILES is read from it. Dolaproine = CO[C@@H]([C@@H]1CCCN1)[C@@H](C)C(=O)O; Dil = CC[C@H](C)[C@H](NC)[C@@H](CC(=O)O)OC; NMeV = CN[C@H](C(=O)O)C(C)C
Columns and labels:
Assay in all cases: Anti-proliferation assay of ADC (SRB)
Assay type in all cases: cell-based, human
Settings in all cases: 72 hours, drug
[1] = system: MCF-7 (HER2-negative or -normal) breast cancer cell line
Description: (§1) Anti-cell proliferation activities of antibodies, a drug, and ADC(s) illustrated in the following Table 2 on cancer cell lines were measured.
(§2) As the cancer cell lines, commercialized human breast cancer cell lines MCF-7 (HER2-negative or -normal) and SK-Br3 (HER2 positive), and a commercialized ovarian cancer cell lines SK-OV3 (HER2 positive) were used. As the drug, MMAF was used.
(§3) After each of the cancer cell lines was seeded in a 96-well plate at 10,000 cells/each well and cultured for 24 hours, the antibody and ADC were treated at a concentration of 0.01563-2 μg/ml (2 times serial dilution), and the drug was treated at a concentration of 4-500 nM (2 times serial dilution). After 72 hours, the numbers of living cells were quantified using a Sulforhodamine B (SRB) dye.

[2] = system: SK-OV3 (HER2 positive) ovarian cancer cell line
Description: as §1, §2, §3

[3] = system: SK-Br3 (HER2 positive) breast cancer cell line
Description: as §1, §2
After 72 hours, the numbers of living cells were quantified using a Sulforhodamine B (SRB) dye.

`CC[C@H](C)[C@@H]([C@@H](CC(=O)N1CCC[C@H]1[C@H](OC)[C@@H](C)C(=O)N[C@@H](Cc1ccccc1)C(=O)O)OC)N(C)C(=O)[C@@H](NC(=O)[C@@H](NC)C(C)C)C(C)C` [MMAF, monomethylauristatin F] (H-[NMeV]V[Dil][Dolaproine]F-OH) showed an IC50 [1] of 142 nM, an IC50 [2] of 227 nM and an IC50 [3] of 136 nM.

— patent publication US10980890B2, “Compounds comprising self-immolative group” (LegoChem Biosciences, Inc., priority 2014, dated 2021)
